Measurements as given in US12221459B2, “Cancer treatment with (2,2-bishydroxymethyl) methylenecyclopropane nucleotides” (MEDIVIR AB, priority 2018, dated 2025).
Where two headings read alike, the source gives them in different places.

Key:
[1] = system: THP-1 (human acute monocytic leukemia); experiment: Leukemia cell line activity assay (Cell Counting Kit-8, 5 days), THP-1
Procedure: (§1) Compounds of the invention were evaluated for activity against the leukemia cell lines THP-1, EOL-1 and MV4-11, using the following assay:
(§2) Test compounds were made up to 10 mM stock solution in DMSO
(§3) Leukemia cells (THP-1, EOL-1 and MV4-11) were grown in a cell culture flask 75 cm^2 with approximately 100 ml complete cell medium. The cells were counted using a Scepter-hand held automated cell counter, using 60 μm sensors (Millipore) and suspended in complete cell medium to 2×10^5 cells. 100 μl of the cell suspension were seeded to all wells (2×10^4 cells/well).
(§4) The compounds were tested in twelve concentrations, 10-fold serial dilutions, 50 μM-5×10^−10 μM.
(§5) 100 μl from a compound dilution plate were transferred to the cell assay plate=200 μl/well total volume and incubated for 5 days, at 37° C., 5% CO2 incubator.
(§6) After 5 days, 10l of KIT-8 was added and the culture was incubated for 3-4 hours, at 37° C., 5% CO2 incubator.
(§7) Plate were read in the spectrophotometer at wavelength 450 nm with a reference filter of 620 nm.
(§8) CC50 values are calculated by plotting the degree of inhibition (compared to the vehicle ctrl) against the logarithm of the compound concentration. Result values in the dilution series are fitted to a 4-parameter sigmoidal dose-response curve described by the expression: F(x)=D+(A−D)/(1+(x/C)^B) where: • A=Minimum • B=Slope. • C=Inflection point. The inflection point is defined as the point on the curve where the curvature changes direction or signs. • D=Maximum • F=fraction inhibition

[2] = system: MV4-11 cells, human B-myelomonocytic leukemia; experiment: Leukemia cell line activity assay (Cell Counting Kit-8, 5 days), MV4-11
Procedure: as §1, §2, §3, §4, §5, §6, §7, §8

EOL-1 (human) = experiment: Leukemia cell line activity assay (Cell Counting Kit-8, 5 days), EOL-1; details: read-out: EOL.1 CC50
Procedure: as §1, §2, §3, §4, §5, §6, §7, §8

[3] = Homo sapiens, THP-1, 120 h, read-out: THP-1 CC50, THP-1 cells, 5 days incubation
[4] = Homo sapiens, MV4-11, 120 h, read-out: MV4-11 CC50, MV4-11 cells, 5 days incubation
[5] = read-out: THP-1 CC50, THP-1 cells, 5 days incubation
[6] = read-out: MV4-11 CC50, MV4-11 cells, 5 days incubation

CCCC(CCC)COC(=O)[C@H](C)N[P@](=O)(OCC1(COC(=O)C(C)C)C/C1=C/n1ccc(N)nc1=O)Oc1ccccc1 (single isomer, unassigned) [Example 16-1]
CC50 [1, 3]: 0.35 µM | CC50 [2, 4]: 0.19 µM

COC(=O)[C@H](CC(C)C)N[P@](=O)(OCC1(COC(=O)C(C)C)C/C1=C/n1cnc2c(=O)[nH]c(N)nc21)Oc1ccccc1 (single isomer, unassigned) [Example 18-2]
CC50 [1, 3]: 1.8 µM | CC50 [2, 4]: 0.8 µM

CCC(CC)COC(=O)[C@H](Cc1ccccc1)N[P@](=O)(OCC1(COC(=O)C(C)C)C/C1=C/n1cnc2c(=O)[nH]c(N)nc21)Oc1ccccc1 (single isomer, unassigned) [Example 20-2]
CC50 (EOL-1 (human); Homo sapiens, EOL1, 120 h): 3.6 µM | CC50 [1, 3]: 0.9 µM | CC50 [2, 4]: 0.38 µM

CCC(CC)COC(=O)[C@H](CC(C)C)N[P@](=O)(OCC1(COC(=O)C(C)C)C/C1=C/n1cnc2c(=O)[nH]c(N)nc21)Oc1ccccc1 (single isomer, unassigned) [Example 21-2]
CC50 [1, 3]: 0.39 µM | CC50 [2, 4]: 0.51 µM

CCC[C@H](C)OC(=O)[C@H](C)N[P@](=O)(OCC1(COC(=O)C(C)C)C/C1=C/n1ccc(N)nc1=O)Oc1ccccc1 (single isomer, unassigned) [Example 28-2]
CC50 [1, 3]: 0.88 µM | CC50 [2, 4]: 1 µM

CCCC(=O)OCC1(CO[P@@](=O)(N[C@@H](C)C(=O)O[C@@H](C)CCC)Oc2ccccc2)C/C1=C/n1ccc(N)nc1=O (single isomer, unassigned) [Example 29-1]
CC50 [1, 3]: 0.71 µM | CC50 [2, 4]: 1.2 µM

CCCC(=O)OCC1(CO[P@@](=O)(N[C@@H](C)C(=O)OCC(CCC)CCC)Oc2ccccc2)C/C1=C/n1ccc(N)nc1=O (single isomer, unassigned) [Example 32-1]
CC50 (EOL-1 (human); Homo sapiens, EOL1, 120 h): 0.059 µM | CC50 [1, 5]: 0.19 µM | CC50 [2, 6]: 0.18 µM

CCC(CC)COC(=O)C[C@H](N[P@](=O)(OCC1(COC(=O)C(C)C)C/C1=C/n1cnc2c(=O)[nH]c(N)nc21)Oc1ccccc1)C(=O)OCC(CC)CC (single isomer, unassigned) [Example 35-1]
CC50 [1, 3]: 0.29 µM | CC50 [2, 4]: 0.18 µM

CCCC(CCC)COC(=O)[C@H](C)N[P@](=O)(OCC1(COC(=O)C(C)C)C/C1=C/n1cc(F)c(N)nc1=O)Oc1ccccc1 (single isomer, unassigned) [Example 39-2]
CC50 [1, 3]: 0.6 µM | CC50 [2, 4]: 2.6 µM

CCCC(=O)OCC1(CO[P@@](=O)(N[C@@H](C)C(=O)OCC(CCC)CCC)Oc2ccccc2)C/C1=C/n1ccc(N)nc1=O (single isomer, unassigned) [Example 45-1]
CC50 (EOL-1 (human); EOL-1 cells, 5 days incubation): 0.059 µM | CC50 [1, 5]: 0.19 µM | CC50 [2, 6]: 0.18 µM

CCCC(=O)OCC1(CO[P@@](=O)(N[C@@H](C)C(=O)OCC(CCC)CCC)Oc2ccccc2)C/C1=C/n1ccc(N)nc1=O (single isomer, unassigned) [Example 45-2]
CC50 [1, 5]: 2 µM | CC50 [2, 6]: 2.2 µM

Nc1nc2c(ncn2/C=C2/CC2(CO)CO)c(=O)[nH]1 [Cyclopropavir, 2,2-bis-(hydroxymethyl) cyclopropylidene methyl guanine, reference compound]
CC50 (EOL-1 (human); Homo sapiens, EOL1, 120 h): 11 µM | CC50 ([1]; Homo sapiens, THP-1, 120 h, read-out: THP-1 CC50): 5.1 µM | CC50 ([2]; Homo sapiens, MV4-11, 120 h, read-out: MV4-11 CC50): 11 µM

CCCC(CCC)COC(=O)[C@H](C)N[P@](=O)(OC[C@@]1(COC(=O)[C@@H](N)C(C)C)C/C1=C/n1cnc2c(=O)[nH]c(N)nc21)Oc1ccccc1 [Example 1f-1, (S)-((S,Z)-2-((2-Amino-6-oxo-1H-purin-9(6H)-yl)methylene)-1-((((S)-(((S)-1-oxo-1-((2-propylpentyl)oxy)propan-2-yl)amino)(phenoxy)phosphoryl)oxy)methyl)cyclopropyl)methyl 2-amino-3-methylbutanoate]
CC50 (EOL-1 (human); Homo sapiens, EOL1, 120 h): 0.12 µM | CC50 [1, 3]: 0.67 µM | CC50 [2, 4]: 0.46 µM

CCC[C@H](C)OC(=O)[C@H](C)N[P@](=O)(OC[C@@]1(COC(=O)C(C)C)C/C1=C/n1cnc2c(=O)[nH]c(N)nc21)Oc1ccccc1 [Example 6-2, ((S,Z)-2-((2-amino-6-oxo-1H-purin-9(6H)-yl)methylene)-1-((((S)-(((S)-1-oxo-1-((S)-pentan-2-yloxy)propan-2-yl)amino)(phenoxy)phosphoryl)oxy)methyl)cyclopropyl)methyl isobutyrate]
CC50 (EOL-1 (human); Homo sapiens, EOL1, 120 h): 0.19 µM | CC50 [1, 3]: 0.74 µM | CC50 [2, 4]: 0.43 µM

CCCC(=O)OC[C@]1(CO[P@@](=O)(N[C@@H](C)C(=O)OCC(CCC)CCC)Oc2ccccc2)C/C1=C/n1cnc2c(=O)[nH]c(N)nc21 [Example 11-1, ((S,Z)-2-((2-Amino-6-oxo-1H-purin-9(6H)-yl)methylene)-1-((((S)-(((S)-1-oxo-1-((2-propylpentyl)oxy)propan-2-yl)amino)(phenoxy)phosphoryl)oxy)methyl)cyclopropyl)methyl butyrate]
CC50 (EOL-1 (human); Homo sapiens, EOL1, 120 h): 0.14 µM | CC50 [1, 3]: 0.19 µM | CC50 [2, 4]: 0.071 µM

CCCC(=O)OC[C@]1(CO[P@@](=O)(N[C@@H](C)C(=O)O[C@@H](C)CCC)Oc2ccc(Br)cc2)C/C1=C/n1cnc2c(=O)[nH]c(N)nc21 [Example 12-1, ((S,Z)-2-((2-Amino-6-oxo-1H-purin-9(6H)-yl)methylene)-1-((((S)-(4-bromophenoxy)(((S)-1-oxo-1-((S)-pentan-2-yloxy)propan-2-yl)amino)phosphoryl)oxy)methyl)cyclopropyl)methyl butyrate]
CC50 (EOL-1 (human); Homo sapiens, EOL1, 120 h): 0.17 µM | CC50 [1, 3]: 0.29 µM

CCCC(CCC)COC(=O)[C@H](C)N[P@](=O)(OC[C@@]1(COC(C)=O)C/C1=C/n1cnc2c(=O)[nH]c(N)nc21)Oc1ccccc1 [Example 13-1, (S)-2-propylpentyl 2-(((S)-(((S,Z)-1-(acetoxymethyl)-2-((2-amino-6-oxo-1H-purin-9(6H)-yl)methylene)cyclopropyl)methoxy)(phenoxy)phosphoryl)amino)propanoate]
CC50 [1, 3]: 0.87 µM | CC50 [2, 4]: 1.1 µM

CCC[C@H](C)OC(=O)[C@H](C)N[P@](=O)(OC[C@@]1(COC(=O)[C@@H](N)C(C)C)C/C1=C/n1cnc2c(=O)[nH]c(N)nc21)Oc1ccccc1 [Example 15-1, (S)-((S,Z)-2-((2-amino-6-oxo-1H-purin-9(6H)-yl)methylene)-1-((((S)-(((S)-1-oxo-1-((S)-pentan-2-yloxy)propan-2-yl)amino)(phenoxy)phosphoryl)oxy)methyl)cyclopropyl)methyl 2-amino-3-methylbutanoate]
CC50 [1, 3]: 1 µM

CCC(CC)COC(=O)[C@H](Cc1ccccc1)N[P@](=O)(OCC1(COC(=O)[C@@H](N)C(C)C)C/C1=C/n1cnc2c(=O)[nH]c(N)nc21)Oc1ccccc1 (stereo partly drawn) [Example 23, ((Z)-2-((2-amino-6-oxo-1,6-dihydro-9H-purin-9-yl)methylene)-1-((((S)-(((S)-1-(2-ethylbutoxy)-1-oxo-3-phenylpropan-2-yl)amino)(phenoxy)phosphoryl)oxy)methyl)cyclopropyl)methyl L-valinate]
CC50 [1, 3]: 2.4 µM | CC50 [2, 4]: 0.85 µM

CCCCCCCCCCCCCCCCCC(=O)OCC1(CO[P@@](=O)(N[C@@H](C)C(=O)O[C@@H](C)CCC)Oc2ccccc2)C/C1=C/n1cnc2c(=O)[nH]c(N)nc21 (stereo partly drawn) [Example 24, ((Z)-2-((2-amino-6-oxo-1,6-dihydro-9H-purin-9-yl)methylene)-1-((((S)-(((S)-1-oxo-1-(((S)-pentan-2-yl)oxy)propan-2-yl)amino)(phenoxy)phosphoryl)oxy)methyl)cyclopropyl)methyl stearate]
CC50 [1, 3]: 3.8 µM | CC50 [2, 4]: 2.1 µM

CCC(CC)COC(=O)[C@H](Cc1ccccc1)N[P@](=O)(OCC1(COC(=O)C(C)C)C/C1=C/n1ccc(N)nc1=O)Oc1ccccc1 (stereo partly drawn) [Example 25-2, 2-ethylbutyl((S)-(((Z)-2-((4-amino-2-oxopyrimidin-1 (2H)-yl)methylene)-1-((isobutyryloxy)methyl)cyclopropyl)methoxy)(phenoxy)phosphoryl)-L-phenylalaninate]
CC50 (EOL-1 (human); EOL-1 cells, 5 days incubation): 0.1 µM | CC50 [1, 5]: 0.41 µM | CC50 [2, 6]: 0.086 µM

CCCC(=O)OCC1(CO[P@@](=O)(N[C@@H](C)C(=O)O[C@@H](C)CCC)Oc2ccccc2)C/C1=C/n1cnc2c(=O)[nH]c(N)nc21 (stereo partly drawn) [Example 30-1, ((Z)-2-((2-amino-6-oxo-1,6-dihydro-9H-purin-9-yl)methylene)-1-((((S)-(((S)-1-oxo-1-(((S)-pentan-2-yl)ox)propan-2-yl)amino)(phenoxy)phosphoryl)oxy)methyl)cyclopropyl)methyl butyrate]
CC50 (EOL-1 (human); Homo sapiens, EOL1, 120 h): 0.94 µM | CC50 [1, 3]: 0.46 µM | CC50 [2, 4]: 0.43 µM

CCC(CC)COC(=O)[C@H](CC(C)C)N[P@](=O)(OCC1(COC(=O)C(C)C)C/C1=C/n1ccc(N)nc1=O)Oc1ccccc1 (stereo partly drawn) [Example 34-2, 2-ethylbutyl((S)-(((Z)-2-((4-amino-2-oxopyrimidin-1(2H)-yl)methylene)-1-((isobutyryloxy)methyl)cyclopropyl)methoxy)(phenoxy)phosphoryl)-L-leucinate]
CC50 (EOL-1 (human); EOL-1 cells, 5 days incubation): 0.17 µM | CC50 [1, 5]: 0.34 µM | CC50 [2, 6]: 0.44 µM

CCCC(=O)OCC1(CO[P@@](=O)(N[C@@H](C)C(=O)OCC(CCC)CCC)Oc2ccccc2)C/C1=C/n1cc(F)c(N)nc1=O (stereo partly drawn) [Example 40, ((Z)-2-((4-amino-5-fluoro-2-oxopyrimidin-1(2H)-yl)methylene)-1-((((S)-(((S)-1-oxo-1-((2-propylpentyl)oxy)propan-2-yl)amino)(phenoxy)phosphoryl)oxy)methyl)cyclopropyl)methyl butyrate]
CC50 [2, 4]: 3.1 µM

(S)-(S)-Pentan-2-yl 2-(((S)-(((S,Z)-1-(acetoxymethyl)-2-((2-amino-6-oxo-1H-purin-9(6H)-yl)methylene)cyclopropyl)methoxy)(4-bromophenoxy)phosphoryl)amino) [Example 8-1]
CC50 (EOL-1 (human); EOL-1 cells, 5 days incubation): 0.34 µM | CC50 [1, 5]: 0.26 µM
